For ten molecules, T/C results are on record in PubChem BioAssay AID248 (DTP/NCI, 2004).

For this experiment, the system named is L1210 leukemia ip in BDF1 mice, survival T/C. Briefly: NCI In Vivo Anticancer Drug Screen. Data for tumor model L1210 Leukemia (intraperitoneal) in B6D2F1 (BDF1) mice. Particulars: endpoint: mean survival time, higher = longer survival. Summed up:
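Each compound was tested against a transplantable tumor grown in mice. The endpoint was survival, with treated animals benchmarked against vehicle controls as a simple ratio.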

The mark [1] stands for this setting: dose: 100.0 mg/kg/injection, schedule: Q04DX003 (ip), vehicle: saline.
The mark [2] stands for this setting: dose: 200.0 mg/kg/injection, schedule: Q04DX003 (ip), vehicle: saline.
Setting [3] is: dose: 400.0 mg/kg/injection, schedule: Q04DX003 (ip), vehicle: saline.

“And” between values parts separate entries of the source, which are not always exact repeats. Equal values may be shown once. Toxic doses and inconclusive results are not listed.

Regarding `O=C1CSC(=O)N1c1ccccc1`, the T/C reads like this: (dose: 100.0 mg/kg/injection, schedule: Q01DX001 (ip), vehicle: saline with Tween-80) 107 % of control; under setting [1], 93 % of control; (dose: 200.0 mg/kg/injection, schedule: Q01DX001 (ip), vehicle: saline with Tween-80) 94 % of control; under setting [2], 100 % of control; (dose: 400.0 mg/kg/injection, schedule: Q01DX001 (ip), vehicle: saline with Tween-80) 98 % of control; under setting [3], 89 % of control.
In the case of `O=C1OCC/C1=C/CCC/C=C1\CCOC1=O`, the T/C reads like this: (dose: 100.0 mg/kg/injection, schedule: Q01DX009 (ip), vehicle: Klucel (hydroxypropylcellulose) (HPC)) 101 % of control; (dose: 100.0 mg/kg/injection, schedule: Q04DX003 (ip), vehicle: Klucel (hydroxypropylcellulose) (HPC)) 100 % of control; (dose: 200.0 mg/kg/injection, schedule: Q01DX009 (ip), vehicle: Klucel (hydroxypropylcellulose) (HPC)) 102 % of control; (dose: 200.0 mg/kg/injection, schedule: Q04DX003 (ip), vehicle: Klucel (hydroxypropylcellulose) (HPC)) 94 % of control; (dose: 400.0 mg/kg/injection, schedule: Q01DX009 (ip), vehicle: Klucel (hydroxypropylcellulose) (HPC)) 88 % of control; (dose: 400.0 mg/kg/injection, schedule: Q04DX003 (ip), vehicle: Klucel (hydroxypropylcellulose) (HPC)) 92 % of control.
Consider `CCC#CC(=O)OCCCC`, for which the T/C reads like this: (dose: 100.0 mg/kg/injection, schedule: Q04DX002 (ip), vehicle: saline) 93 % of control; (dose: 200.0 mg/kg/injection, schedule: Q04DX002 (ip), vehicle: saline) 104 % of control; (dose: 400.0 mg/kg/injection, schedule: Q04DX002 (ip), vehicle: saline) 96 % of control.
As for `CN=C(NC)c1ccc(NC(=O)c2cccc(C(=O)Nc3ccc(C(=NC)NC)cc3)c2)cc1`, the T/C is 110 % of control (dose: 15.0 mg/kg/injection, schedule: Q01DX Z (ip), vehicle: saline); 119 % of control (dose: 30.0 mg/kg/injection, schedule: Q01DX Z (ip), vehicle: saline); 86 % of control (dose: 60.0 mg/kg/injection, schedule: Q01DX Z (ip), vehicle: saline).
On to `CCOC(CN=Cc1ccccn1)OCC`, for which the T/C reads like this: under setting [1], 97 % of control; under setting [2], 91 % of control; under setting [3], 90 % of control.
On to `CCCCN=C=NCCCN(C)C`, for which the T/C reads like this: (dose: 62.5 mg/kg/injection, schedule: Q04DX003 (ip), vehicle: Klucel (hydroxypropylcellulose) (HPC)) 103 % of control; (dose: 125.0 mg/kg/injection, schedule: Q04DX003 (ip), vehicle: Klucel (hydroxypropylcellulose) (HPC)) 96 % of control; (dose: 250.0 mg/kg/injection, schedule: Q04DX003 (ip), vehicle: Klucel (hydroxypropylcellulose) (HPC)) 92 % of control.
As for `CCN(CC)P(=O)(N1CC1C)N1CC1C` (stereo not given), the T/C was 111 % of control (dose: 4.4 mg/kg/injection, schedule: Q01DX015 (ip), vehicle: saline); 122 % of control (dose: 6.25 mg/kg/injection, schedule: Q01DX009 (ip), vehicle: saline); 105 % of control (dose: 6.6 mg/kg/injection, schedule: Q01DX015 (ip), vehicle: saline); 106 % of control (dose: 10.0 mg/kg/injection, schedule: Q01DX015 (ip), vehicle: saline); 112 % of control (dose: 14.0 mg/kg/injection, schedule: Q01DX009 (ip), vehicle: saline); 106 % of control (dose: 15.0 mg/kg/injection, schedule: Q01DX015 (ip), vehicle: saline). Further, the T/C (dose: 33.0 mg/kg/injection, schedule: Q01DX015 (ip), vehicle: saline) is 109 % of control; the T/C (dose: 44.4 mg/kg/injection, schedule: Q01DX001 (ip), vehicle: saline) was 108 % of control and 115 % of control; the T/C (dose: 50.0 mg/kg/injection, schedule: Q01DX015 (ip), vehicle: saline) is 102 % of control; the T/C (dose: 66.6 mg/kg/injection, schedule: Q01DX001 (ip), vehicle: saline) was 121 % of control; the T/C (dose: 75.0 mg/kg/injection, schedule: Q01DX009 (ip), vehicle: saline) is 90 % of control; the T/C (dose: 150.0 mg/kg/injection, schedule: Q01DX001 (ip), vehicle: saline) is 157 % of control.
For `Nc1nc(C(=O)O)cc(=O)[nH]1`, the T/C is 103 % of control (dose: 100.0 mg/kg/injection, schedule: Q01DX001 (ip), vehicle: carboxymethylcellulose (CMC)); 113 % of control (dose: 200.0 mg/kg/injection, schedule: Q01DX001 (ip), vehicle: carboxymethylcellulose (CMC)); 96 % of control (dose: 400.0 mg/kg/injection, schedule: Q01DX001 (ip), vehicle: carboxymethylcellulose (CMC)).
`O=C(Nc1ccc(C2=NCCN2)cc1)c1ccc(C(=O)Nc2ccc(C3=NCCN3)cc2)o1`: the T/C reads like this: (dose: 15.0 mg/kg/injection, schedule: Q01DX Z (ip), vehicle: carboxymethylcellulose (CMC)) 113 % of control; (dose: 30.0 mg/kg/injection, schedule: Q01DX Z (ip), vehicle: carboxymethylcellulose (CMC)) 120 % of control; (dose: 120.0 mg/kg/injection, schedule: Q01DX Z (ip), vehicle: carboxymethylcellulose (CMC)) 248 % of control; (dose: 240.0 mg/kg/injection, schedule: Q01DX Z (ip), vehicle: saline) 252 % of control; (dose: 480.0 mg/kg/injection, schedule: Q01DX Z (ip), vehicle: saline) 111 % of control.
Consider `NC(=O)NC(NC(N)=O)C(Cl)(Cl)Cl`, for which the T/C by setting is: (dose: 100.0 mg/kg/injection, schedule: Q01DX009 (ip), vehicle: saline) 101 % of control; (dose: 100.0 mg/kg/injection, schedule: Q04DX003 (ip), vehicle: saline with Tween-80) 100 % of control; (dose: 200.0 mg/kg/injection, schedule: Q01DX009 (ip), vehicle: saline) 102 % of control; (dose: 200.0 mg/kg/injection, schedule: Q04DX003 (ip), vehicle: saline with Tween-80) 100 % of control; (dose: 400.0 mg/kg/injection, schedule: Q01DX009 (ip), vehicle: saline) 102 % of control; (dose: 400.0 mg/kg/injection, schedule: Q04DX003 (ip), vehicle: saline with Tween-80) 100 % of control.
